One assay addresses T1, calmodulin (Homo sapiens, UniProt P0DP23).
T1 construct: purchased Sigma Aldrich
The experiment in a line: SPR-OBL equilibrium analysis of ion binding to calmodulin OBL. The settings on record: equilibrium analysis of AC response, 100 times diluted PBS buffer. An excerpt:
Calmodulin is a calcium sensing protein that plays a central role in cell signaling, muscle contraction and cell division. We fabricated a calmodulin OBL and flowed different concentrations of Ca^2+ over the surface. The binding of Ca^2+ to calmodulin would lead to charge and conformation change of the OBL but with small mass change (FIG. 7a). […] Thus, we only measured the magnitude of the equilibrium state. […] We note that calmodulin is negatively charged, so Ca^2+ binding should decrease the amplitude of the AC signal. The increase of AC signal in FIG. 7b is due to artifacts in data processing when correcting the background charging. The raw data has decreased signal but much lower signal-to-noise ratio (not shown). Magnesium would also bind to calmodulin with a lower affinity compared with calcium.
(§1) Binding kinetics measurement.

The target of a further assay is T2, streptavidin OBL (Streptomyces avidinii, UniProt P22629).
T2 construct: purchased Thermo Fisher Scientific
T2 sequence (P22629 37-163 limits assumed): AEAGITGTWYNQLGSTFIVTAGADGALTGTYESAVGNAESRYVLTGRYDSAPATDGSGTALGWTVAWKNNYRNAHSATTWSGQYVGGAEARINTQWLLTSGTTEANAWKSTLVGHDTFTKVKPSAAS
The experiment in a line: Control experiment: small molecules injected to streptavidin OBL without nanodisc. Format: binding. To be noted: streptavidin OBL without nanodisc at 30° C. An excerpt:
Unlike macromolecules that are inclined to have both mass and charge changes upon binding, small molecules are more likely to have charge change with little mass change. As such, measuring charge could be more sensitive for small molecules. To highlight this advantage of SRR-OBL and its potential for drug screening, we measured two small molecule drug candidates, compound 1 and PAP-1, binding to their target KcsA-Kv1.3, which is a chimeric membrane protein. The KcsA-Kv1.3 was encapsulated in a self-assembled phospholipid bilayer nanodisc that provides a nativelike environment for the membrane proteins to retain the structure and function. Despite the importance of membrane protein as drug targets, measuring the interaction with small molecule drug candidates has been challenging for traditional mass-sensitive technologies, due to the huge mass difference between the small molecule and the membrane protein complex. Before adding samples, 40 times diluted nanodisc buffer was flowed over the surface for 200 seconds to establish the baseline. The binding of the small molecule to KcsA-Kv1.3 nanodisc caused a charge change on the OBL, which leads to an AC response. […]
(§2) Fabrication of OBL. […] The surface coverage of streptavidin on the PEG layer was measured to be 64%, and 46% of the streptavidin could oscillate effectively. […]

For a further assay, the target named is KcsA-Kv1.3. In words: SPR-OBL binding kinetics of small molecules to KcsA-Kv1.3 nanodisc on streptavidin OBL. The settings on record: AC response, 40 times diluted nanodisc buffer.
Text: Unlike macromolecules that are inclined to have both mass and charge changes upon binding, small molecules are more likely to have charge change with little mass change. As such, measuring charge could be more sensitive for small molecules. To highlight this advantage of SRR-OBL and its potential for drug screening, we measured two small molecule drug candidates, compound 1 and PAP-1, binding to their target KcsA-Kv1.3, which is a chimeric membrane protein. The KcsA-Kv1.3 was encapsulated in a self-assembled phospholipid bilayer nanodisc that provides a nativelike environment for the membrane proteins to retain the structure and function. Despite the importance of membrane protein as drug targets, measuring the interaction with small molecule drug candidates has been challenging for traditional mass-sensitive technologies, due to the huge mass difference between the small molecule and the membrane protein complex. Before adding samples, 40 times diluted nanodisc buffer was flowed over the surface for 200 seconds to establish the baseline. The binding of the small molecule to KcsA-Kv1.3 nanodisc caused a charge change on the OBL, which leads to an AC response. As mentioned before, small molecule would only introduce a minor mass change. Therefore, the DC response of OBL is not obvious. […] According to a previous study that temperature would influence the binding kinetics between KcsA-Kv1.3 and small molecule due to the effect on the flexibility of lipid bilayer, we repeated the experiment under 30° C. and found the kinetic constants became (2.7±0.5)×10^4 M^−1s^−1, (1.9±0.4)×10^−2 s^−1 and 6.8±1.2×10 2 nM, as shown in FIG. 6c. The results are close to the value in literature. […] To verify the binding was specific, we performed control experiments by directly injecting compound 1 and PAP-1 to a streptavidin OBL without nanodisc at 30° C.
Fabrication of OBL. The sensor chip (a cover glass coated with 43 nm Au) was rinsed by DI water and ethanol for twice. Then it was annealed by hydrogen flame to further remove surface contaminants. To fabricate the streptavidin OBL, the chip was first dipped in a mixture of 1 mM thiol-PEG2k and 100 μM thiol-PEG10k-bioitin in 1×PBS overnight. The chip was dried with N2 and a silicone cell was mounted on the chip surface for holding solution. Next, the surface was incubated in 0.2 mg/mL streptavidin in PBS for 30 mins. The functionalized surface was carefully rinsed with PBS for 6 times. Note that the solution should not be completely removed from the cell during the rinsing process, and any air bubbles should be avoided as well, because the tethered protein could be irreversibly absorbed on the surface once exposed to air. The surface coverage of streptavidin on the PEG layer was measured to be 64%, and 46% of the streptavidin could oscillate effectively. The streptavidin OBL was later used to couple biotinylated proteins. To couple KcsA-Kv1.3 nanodisc, 70 μg/mL biotinylated KcsA-Kv1.3 nanodisc in nanodisc buffer was added to the cell and incubated for 30 min. Similarly, the biotinylated SRCtide was immobilized on the streptavidin OBL by incubating in 33 μg/mL SRCtide in kinase buffer containing 5 mM MgCl2 and 1 mM HEPES (pH 7.4) for 30 mins.
as §1

Another assay addresses T3, Src kinase (Homo sapiens, UniProt P12931).
T3 construct: The active full length SRC protein was purchased from Abcam; purchased Abcam
The experiment in a line: SPR-OBL phosphorylation kinetics of SRCtide by Src kinase. It counts as biochemical. The settings on record: ATP present.
Text: Since SPR-OBL is able to record mass and charge changes at the same time, it is particularly suitable for studying complex enzymatic processes that involve multiple kinetic steps and size and charge changes. Phosphorylation is one of such reactions that includes binding of the kinase to the substrate, adding a phosphate to the substrate, and unbinding of the kinase, where each step accompanies mass or charge change. Despite the importance of phosphorylation in many basic cellular signaling processes and its close relationship with various diseases and cancers, traditional techniques including fluorescence, western blot, and mass spectrometry are unable to resolve the kinetic process in real-time, and each kinetic step needs to be measured separately, limiting the measurement efficiency. In contrast, SPR-OBL can measure multiple steps of the enzyme catalytic reaction in real-time and extract several kinetic parameters in a single measurement. We studied the phosphorylation of SRCtide as an example. SRCtide that was a peptide containing 14 amino acid with the sequence GEEPLYWSFPAKKK (SEQ ID NO: 1) was modified on a streptavidin OBL, which serves as the substrate of the enzyme Src kinase. […]
where E and S are the enzyme and substrate, ES is the complex, and P is the phosphorylated product, respectively; and k denotes the kinetic constant in each step. We measured the SPR-OBL response of different concentrations of Src in the presence of ATP and the results are shown in FIG. 8b. […]
where [E0], [S0] and [P] are concentration of SRC, SRCtide and the product, respectively. The Michaelis constant (KM) and catalytic constant (k2) can be determined to be 4.4 nM and 5.5×10^−4 s^−1 by fitting the AC component (FIG. 8d) to Eq. 1. Knowing KM and k2 the association rate constant (k1) and dissociation rate constant (k−1) can be determined by fitting the DC component (FIG. 8c) to the following equations: […]
as §2

The values that follow come from patent publication US20240019429A1, “METHODS AND RELATED ASPECTS FOR DETERMINING BINDING KINETICS OF LIGANDS” (ARIZONA BOARD OF REGENTS ON BEHALF OF ARIZONA STATE …, priority 2022, published 2024).

With `[Ca+2]` [Ca^2+, calcium ion], binding at calmodulin was put at a Kd of 1.9 µM.
With `[Mg+2]` [Mg^2+, Magnesium], on calmodulin, the affinity, expressed as Kd, was 35 µM.
As for `O=c1ccc2c(OCCCCOc3ccccc3)c3ccoc3cc2o1` [PAP-1], the “response on streptavidin OBL (nonspecific binding control)” value at streptavidin OBL is given as “only small response”. At KcsA-Kv1.3 (25° C.), binding was put at a Kd of 65 ± 11 µM, the ka result is “(3.8±0.6)×10^2 M^−1 s^−1” and the kd entry was “(2.3±0.1)×10^−2 s^−1”. At KcsA-Kv1.3 (30° C.), binding was put at a Kd of 210 µM, the ka entry is reported as “(4.8±0.4)×10^2 M^−1s^−1” and the kd result is listed as “(9.6±1.1)×10^−2 s^−1”.
With “SRCtide: peptide containing 14 amino acid with the sequence GEEPLYWSFPAKKK (SEQ ID NO: 1), substrate of Src kinase”, in the assay with Src kinase (fit of AC component to Eq. 1 (EQSS)), the “catalytic constant (k2)” value worked out at 0.00055 s⁻¹. Besides, in the assay with Src kinase (fit of DC component), the “association rate constant (k1)” value is reported as 1.3×10^4 and the “dissociation rate constant (k−1)” value was 2e-06 s⁻¹.

A word on the Kd: it is a measure of binding affinity in units of concentration. Higher therefore signals lower affinity.
